Test results from ChEMBL document CHEMBL3507680, “University of Dundee, Gates Library screen for HepG2 cell viability”.

test: Human HepG2 cell viability assay in 384 well format; type: toxicity, cell-based; set-up: dose 125 nL, time 70.5 hour; cytotoxicity at 70.5 h: concentration not given beside the values; details: HepG2 cells, read-out: Inhibition

| Structure (SMILES) | cytotoxicity at 70.5 h |
| --- | --- |
| CNc1ccnc(N2C[C@@H]3CC[C@H](C2)N(CCOC)C3=O)n1 | -8% |
| O=C(C1CCOCC1)N1C[C@@H]2CN(Cc3ccsc3)CCO[C@@H]2C1 | -10.4% |
| CCc1nccn1C1CCCN(C(=O)c2cnc[nH]2)C1 (configuration not stated) | -3.68% |
| COc1ccc(CC2(CO)CCN(c3cc(C#N)ccn3)CC2)cc1 | -3.42% |
| O=C(O)C1CCCN(C(=O)CCn2ccc3c(Cl)cccc32)C1 (configuration not stated) | -17.2% |
| CC(=O)c1ccc(NC(=O)NC(C(=O)N(C)C)C(C)C)cc1 (configuration not stated) | -4.29% |
| COCc1noc(-c2ccc(N(C)Cc3cc(C)no3)nc2)n1 | -6.05% |
| Cc1cccc(C(C(=O)NCCc2nc(C)cc(=O)[nH]2)N(C)C)c1 (configuration not stated) | 25.6% |
| CCC1=N[C@@]2(CC[C@@H]3CN(C(=O)NCc4ccccc4C)C[C@@H]32)C(=O)N1 | -11.1% |
| Cn1cc(CN2CCC3(CC2)CCN(Cc2ccccn2)CC3)cn1 | 12% |
| Cn1cc(CN2CCOC(CCNC(=O)c3ccsc3)C2)cn1 (configuration not stated) | -0.896% |
| CO[C@H]1CCN(S(=O)(=O)c2cn(C)cn2)[C@H]1Cc1ccccc1 | 0.174% |
| O=C(C1CCCC1)N1CCC(C(O)c2ccc(F)cc2)CC1 (configuration not stated) | -6.02% |
| c1ccc2cc(OCCN3CCOC(Cn4cncn4)C3)ccc2c1 (configuration not stated) | 27.8% |
| CCC(=O)N1CCC2(CCC(N3CCCC3)c3ccccc32)CC1 (configuration not stated) | -6.38% |
| CN1CCN(c2ncc(-c3cnccn3)c([C@H]3CCCO3)n2)CC1 | -8.8% |
| Cc1cc(C[C@@H]2COC[C@H]2NCc2ccc(C(C)C)cc2)on1 | -8.05% |
| CCN(CC)C(=O)Cn1ccc2cc(NC(C)=O)ccc21 | -3.27% |
| CCOCC1CN(C2CCCC2)Cc2cnn(CC3CCOCC3)c21 (configuration not stated) | 2.06% |
| CC(=O)N(C)CC(=O)NC(C)c1ccc(OCCC(C)C)cc1 (configuration not stated) | -3.81% |
| CC(CN1CCOCC1)NCc1nncn1C1CCCCC1 (configuration not stated) | -3.01% |
| Cc1csc(CN2CC[C@H]3C[C@H](c4noc(C)n4)O[C@@H]3C2)n1 | -9.71% |
| O=C(O)C1CCN(C(=O)Cn2ccc3c(Cl)cccc32)CC1 | -12.6% |

| Structure (SMILES) | cytotoxicity at 70.5 h |
| --- | --- |
| Cc1nc2c(c(C)c1CC(=O)Nc1ccnn1C(C)C)c(=O)[nH]n2C | 2.43% |
| CCS(=O)(=O)CCN(C)C(=O)NC(C)c1ccc(C)s1 (configuration not stated) | -5.27% |
| Cc1cc(C)n(CC2CN(CC(=O)N3CCNC3=O)CCO2)n1 (configuration not stated) | -1.37% |
| Cn1cc(NC(=O)c2ccccn2)cc(Br)c1=O | -4.48% |
| c1cncc(OC[C@@H]2CCC[C@@]23CN(Cc2nccs2)CCO3)c1 | -2.19% |
| CC(=O)N1CCCC(c2cnc(-c3c(C)nn(C)c3C)cn2)C1 (configuration not stated) | -20.6% |
| O=C(c1cnc(-c2ccccn2)s1)N1CCCC(n2cccn2)C1 (configuration not stated) | 10.2% |
| CN(CCN(C)S(=O)(=O)CC1CCOCC1)c1ccccc1 | -3.42% |
| CCn1nc(C)c2nc(C)nc(NCCCn3cccn3)c21 | -7.44% |
| COCC(=O)N1C[C@@H](O)[C@H](N2CCN(c3ccccc3)CC2)C1 | -0.565% |
| Cc1csc(N2CCCN(C(=O)c3nccnc3N)CC2)n1 | -0.698% |
| CCc1nc(CN2CCCC(Nc3ncnc4ccsc34)C2)no1 (configuration not stated) | -8.27% |
| COCCOc1cccc(C(=O)N2CCCC(n3cccn3)C2)c1 (configuration not stated) | -14.7% |
| CCCc1nc(C(=O)NCCCn2nnc3ccccc32)cs1 | -8.53% |
| CN(Cc1ccccc1Cl)C(C(=O)O)c1ccc(F)c(CO)c1 (configuration not stated) | -7.98% |
| CNS(=O)(=O)CCCN1CCN(C(C)c2cccnc2)CC1 (configuration not stated) | 18.3% |
| COc1ccccc1C1SCC(=O)Nc2n[nH]cc21 (configuration not stated) | 3.24% |
| Cc1nc(COc2ccc(CNCCn3cccn3)cc2)cs1 | 4.56% |
| CN(Cc1cnn(C)c1)C1CCCN(Cc2noc(C3CC3)n2)C1 (configuration not stated) | 50.1% |
| CCC(O)Cn1cc(C2=CCN(Cc3cc(O)nc(C)n3)CC2)cn1 (configuration not stated) | 10.8% |
| Cc1ccc(NC2CCN(C(=O)CCNc3ncccn3)CC2)nn1 | -9.43% |
| CCCN(CCc1ccccc1)c1ncnc2oc(C)nc12 | -2.57% |
| Cc1noc(C)c1CN1C[C@H](OCC2CCN(C)CC2)[C@H]2COC[C@H]21 | 30.4% |

| Structure (SMILES) | cytotoxicity at 70.5 h |
| --- | --- |
| c1cc(-c2ccc(CN3CCC4(CCNCC4)CC3)s2)[nH]n1 | -2.82% |
| CCc1nc(CNc2cc(C)nc(-c3cccnc3)n2)cs1 | 24.1% |
| CC1CCN(S(=O)(=O)N2CCC(Oc3cnccn3)CC2)CC1 | -5.91% |
| O=C1NCCN1C(CNS(=O)(=O)C1CC1)Cc1cccc(F)c1 (configuration not stated) | -13.5% |
| CCOCC1CN(C(=O)C2=CCCC2)Cc2cnn(CC)c21 (configuration not stated) | -16.7% |
| Cc1nc2cc(F)ccc2cc1C(=O)N1CCN(CC(C)O)CC1 (configuration not stated) | -9.69% |
| Cc1nc(C)n(CC2CCCN(CC(=O)Nc3cc(C)on3)C2)n1 (configuration not stated) | -2.38% |
| CCC(C(=O)NC1CCCCC1)n1cccc(OC)c1=O (configuration not stated) | -1.81% |
| O=C(NC[C@H]1OC[C@@H](NC2CCC(F)(F)CC2)[C@@H]1O)Nc1ccccc1 | 0.362% |
| O=C(NC1CCCN(c2ccccn2)C1)C1(c2ccccc2F)CC1 (configuration not stated) | 15.1% |
| Cc1nnsc1CN1C[C@H]2CC[C@@H]1CN(Cc1ccccn1)C2 | -6.51% |
| CN(CC(=O)N1CCCC1c1cnn(C)c1)c1ccc(Cl)cn1 (configuration not stated) | 3.73% |
| OCCN1CCC(c2csc(Nc3cnccn3)n2)CC1 | 14.5% |
| CSCc1cccc(S(=O)(=O)NCCO)c1 | 0.997% |
| CC(C)N1CCC(C(=O)N2CCCN(c3ccccc3)CC2)CC1 | -8.78% |
| CN(C)C(=O)c1cccc(NC(=O)N2CCCC(C(F)(F)F)C2)c1 (configuration not stated) | -8.44% |
| CC(Oc1cc(Cl)cc(Cl)c1)C(=O)NCCC(=O)N(C)C (configuration not stated) | -6.44% |
| Cc1ncc(-c2ccncc2)c(C2CCN(C(=O)c3ccno3)CC2)n1 | -7.69% |
| Cc1cc(C)n(C2CN(c3ncnc4c3CCNCC4)C2)n1 | -9% |
| CC(C)Cc1ncc2c(n1)CN(c1nc3ccccc3cc1CO)C2 | -14.3% |
| CCC1(CO)CCCN(C(=O)c2ccc(N3CCN(C)CC3)cc2)C1 (configuration not stated) | -4.46% |
| CCc1nc(CN2CCCN(C(=O)c3cncnc3C)CC2)cs1 | -7.12% |
| O=C1NCCCc2[nH]c(-c3nc(C4CCCCC4)no3)nc21 | 8.47% |

| Structure (SMILES) | cytotoxicity at 70.5 h |
| --- | --- |
| Cc1ccc(N2CCC3(CC2)CCN(C2CCOCC2)CC3)nn1 | -2.19% |
| O=C1COc2ccc(C(=O)NS(=O)(=O)c3ccccc3F)cc2N1 | -8.64% |
| CC(C)N1CC2(CCCN(Cc3noc(C4CCCC4)n3)C2)CCC1=O (configuration not stated) | 3.06% |
| Cc1ccc(S(=O)(=O)c2ncccc2CN2CCCCC2)cc1 | -21% |
| COCCNC(=O)[C@@H]1CC[C@@H]2[C@@H](CCN2c2ncc(F)cn2)O1 | -3.55% |
| O=C1CC(c2ccc3c(c2)OCO3)c2snc(C(=O)O)c2N1 (configuration not stated) | -10.6% |
| O=C(O)C(c1ccc2c(c1)OCCO2)N1CCC(N2CCOCC2)CC1 (configuration not stated) | 0.0244% |
| O=C1CCCN1C1CCN(S(=O)(=O)CCOc2ccc(F)cc2)CC1 | 23.9% |
| O=C(NCCNc1ncccn1)C1CC(=O)N(CC2CC2)C1 (configuration not stated) | 16.4% |
| Cc1nc(CO[C@@H]2CN(Cc3cccs3)[C@@H]3COC[C@@H]32)cs1 | -9.88% |
| Cc1noc(COCC(=O)Nc2ccc(Br)c(C)n2)n1 | 24.3% |
| Cc1cnn(CC2CCN(CC(O)COc3ccccc3)CC2)c1 (configuration not stated) | 4.78% |
| CCc1nc(CN2CCCN(C(=O)CCOC(C)C)CC2)cs1 | 0.154% |
| COc1ccc(-c2noc(CNC(C)Cn3cccn3)n2)c(OC)c1 (configuration not stated) | 22.3% |
| c1cncc(-c2noc(CN3CCCC3Cn3cccn3)n2)c1 (configuration not stated) | -3.02% |
| O=c1cc(CN2CCC(CCc3ccc(O)cc3)CC2)[nH]c(=O)[nH]1 | -6.15% |
| CCN(Cc1ccc2cccc(O)c2n1)CC1CCCO1 (configuration not stated) | 12.5% |
| Cc1cccc(OCCN2CCCC(c3cc(C(N)=O)[nH]n3)C2)c1 (configuration not stated) | -7.94% |
| CCCN(CCC)c1ncc(S(=O)(=O)c2cccc(C)c2)c(N)n1 | -20.1% |
| Cn1nc(CN2CCCCC2)c2c1CN(Cc1ccoc1)C2 | -7.22% |
| COc1cc(CNCC(C)O)cc(Cl)c1OCc1ccc(C)cc1 (configuration not stated) | 39% |
| O=C(NC1CCCC1)NC1CCC(C(=O)N2CCSCC2)CC1 (configuration not stated) | -9.08% |
| CC(c1ccc(F)cc1)N1CCN(Cc2ccc(C#N)cc2)CC1 (configuration not stated) | -11.6% |

| Structure (SMILES) | cytotoxicity at 70.5 h |
| --- | --- |
| O=C(CCCc1ccccc1)N1CCC(Nc2cccnn2)CC1 | -4.29% |
| CN(CC1(C)COC1)C(=O)c1cc(-c2ccn(C)n2)nc2ccccc12 | 14.1% |
| O=C1CCCN1CCCNCc1cc(O)c2cccc(F)c2n1 | -3.49% |
| Cc1ccc(C)c(NC(=O)N2CCC3(CC2)NC(=O)CC3C(=O)O)c1 (configuration not stated) | -2.48% |
| COCCN(Cc1ccc(C)o1)C(=O)Nc1nnc(C(F)F)s1 | -7.33% |
| O=S(=O)(NC[C@]12COC[C@H]1CN(c1ncc(F)cn1)C2)C1CC1 | 19.1% |
| Cc1cc(CN(C)C2CCCN(Cc3noc(C4CC4)n3)C2)no1 (configuration not stated) | 11.8% |
| Cc1cnn(CC2CN(CC(=O)Nc3nccs3)CCO2)c1 (configuration not stated) | -2.45% |
| N#Cc1ccc(N2CCN(c3nccs3)CC2)nc1 | -0.838% |
| CS(=O)(=O)NCC1OCCc2cn(CC3CC3)nc21 (configuration not stated) | 13% |
| CCC(CC)C(=O)N1CCN(C)c2ncccc2C1 | -2.64% |
| CCc1cnc(N2C[C@H](OCc3csc(C)n3)[C@H]3COC[C@H]32)nc1 | 2.07% |
| Cn1cc(NS(=O)(=O)CC2CCCCO2)cn1 (configuration not stated) | -8.18% |
| Cc1noc(C2CCC3(CCN(C(=O)c4ccn(C)n4)CC3)O2)n1 (configuration not stated) | 10.4% |
| CCNC(=O)CC1CC2(CCN(C(C)=O)CC2)c2cc(F)ccc21 (configuration not stated) | -5.07% |
| Cc1ccc(CN(C)Cc2nc3c(cnn3C)c(=O)[nH]2)c(C)c1 | 7.52% |
| O=C(NCCc1ccccn1)[C@@]12CCO[C@@H]1CCN(C1CCC1)C2 | -6.9% |
| COc1ccc(Cl)cc1C(=O)NCc1cnn(C)c1C | -0.564% |
| COc1ccc(-c2cn3c(n2)CO[C@@H](CNCc2nccn2C)C3)cc1 | 6.44% |
| CCC(C(=O)N(C)Cc1cc(COC)[nH]n1)n1cccn1 (configuration not stated) | -11.5% |
